Patent US8088819B2, “Derivatives of substituted 3-phenyl-1-(phenylthienyl)propan-1-ones and of 3-phenyl-1-(phenylfuranyl) propan-1-ones, preparation and use” (priority 2006, dated 2012)

Columns and labels:
[1] = test system: C57Bl6 mouse; test: Plasma lipid assays in the C57Bl6 mouse, compound 2 at dose effect; assay type: in vivo
Method: The effect of compound 2, administered at dose effect, is evaluated in vivo in the C57Bl6 mouse after 14 days of treatment by the oral route. At the end of the treatment, the antilipemic effect of compound 2 is evaluated by measuring the plasma levels of total cholesterol, of HDL-cholesterol, of triglycerides and of free fatty acids.
Female C57Bl6 mice were kept under a cycle of light and darkness of 12/12 hours at a constant temperature of 20±3° C. After acclimation for one week, the mice were weighed and put into groups of 6 animals selected so that the distribution of their body weight, of their plasma lipid levels and of total cholesterol determined for the first time before the experiment, is uniform. The test compounds were suspended in carboxymethylcellulose (Sigma C4888) and administered by intragastric force feeding, at a rate of once per day for 14 days at the chosen dose. The animals had free access to water and to food (standard diet). At the end of the experiment, the animals were anesthetized after fasting for 4 hours. A blood sample was taken using anticoagulant (EDTA), then the mice were weighed and euthanased. The plasma was separated by centrifugation at 3000 rev/min for 20 minutes, and the samples were stored at +4° C.
Plasma concentrations of total cholesterol and of triglycerides were measured by enzyme assays (bioMérieux-Lyon-France) following the supplier's recommendations.
Low-density lipoproteins (VLDL and LDL) were precipitated with phosphotungstate. The precipitate was removed by centrifugation. The HDL-cholesterol present in the supernatant was quantified by enzyme assays (bioMérieux-Lyon-France) following the supplier's recommendations.
Plasma concentrations of free fatty acids were measured by enzyme assays (WACO chemicals) following the supplier's recommendations.

[2] = test system: target genes of the PPARs; test: Expression of PPARδ target genes in skeletal muscle of the C57Bl6 mouse (compound 2), quantitative RT-PCR; assay type: in vivo; conditions: C57Bl6 mice; 50 mpk; 14 days
Source text: The PPARδ agonistic properties of the molecules according to the invention previously measured in vitro should be reflected at the level of the skeletal muscle in an overexpression of the target genes directly under the control of the PPARδ receptor: the genes that were investigated in this experiment are the genes coding for UCP2 (uncoupling protein 2, mitochondrial transporter involved in thermoregulation) and PDK4 (pyruvate dehydrogenase kinase isoform 4, enzyme of carbohydrate metabolism).
Female C57Bl6 mice were kept under a cycle of light and darkness of 12/12 hours at a constant temperature of 20±3° C. After acclimation for one week, the mice were weighed and put into groups of 6 animals selected so that the distribution of their body weight, of their plasma lipid levels and of total cholesterol determined for the first time before the experiment, is uniform. […]
1 μg of total RNA (quantified on the basis of the spectrophotometer reading) was then reverse-transcribed to complementary DNA by reaction for 1 hour at 37° C. in a total volume of 30 μl containing buffer 1× (Invitrogen), 1.5 mM of DTT, 0.18 mM of dNTPs (Promega), 200 ng of pdN6 (Amersham), 30 U of RNase inhibitor (Promega) and 1 μl of MMLV-RT (Invitrogen). […]
The amount of fluorescence emitted is directly proportional to the amount of complementary DNA present at the start of the reaction and amplified during PCR. […]

Q: Which results are given for `CC(C)(Oc1ccc(CCC(=O)c2ccc(-c3ccc(C(F)(F)F)cc3)s2)c(Cl)c1Cl)C(=O)O` [Compound 2, 2-(2,3-dichloro-4-(3-oxo-3-(5-(4-(trifluoromethyl)phenyl)thien-2-yl)propyl)phenoxy)-2-methylpropanoic acid]?
A: lipid profile ([1]; C57Bl6 mice treated for 14 days): improves; plasma triglyceride levels ([1]; C57Bl6 mouse, 14 days oral, 1, 5, 10 and 50 mpk, significant effect at 50 mpk): dose-dependent decrease; plasma total cholesterol levels ([1]; C57Bl6 mouse, 14 days oral, at 5 and 50 mpk (tested 1, 5, 10 and 50 mpk)): significantly increased; plasma HDL-cholesterol levels ([1]; C57Bl6 mouse, 14 days oral, dose-dependent manner starting from 1 mpk): significantly increased; plasma levels of free fatty acids ([1]; C57Bl6 mouse, 14 days oral, starting from 10 mpk): lowered significantly; expression of the gene coding for PDK4 in skeletal muscle [2]: significant increase; expression of the gene coding for UCP2 in skeletal muscle [2]: significant increase
